Holding throughout (format): cell-based, human
In one test the test system is A375 cells. The settings on record: for metabolic heterogeneity of lipid synthesis activity (Cv of single-cell d-PA metabolites): compared to untreated control group; for d-AA metabolites (protein synthesis activity): compared to untreated group. The method, then:
Deuterated branch-chained amino acids and deuterated palmitic acid were supplemented to the cell culture media for 24 hours in order to probe the flux of protein and lipid synthesis. There can be several considerations for choosing these two types of probes. First, protein and lipids can be the major components of cell dry mass and their metabolism can be tightly regulated. Second, Raman spectra of the metabolites of these two deuterated probes in cells can be shifted to the cell silent region (e.g., 2000 — 2300 cm-1), which facilitated the detection with high sensitivity in a background-free manner. (See, e.g., FIG. 8). Third, compared to non-branch-chained counterparts, branch-chained amino acids were chosen for their narrower Raman spectra in order to have better spectral differences from that of deuterated palmitic acid. (See, e.g., Reference 23; and FIGS. 9). With the high-throughput instrumentation efforts described above, Raman spectra of these two types of probes can be acquired as quickly as 0.5 s for the entire cell with a satisfactory signal to noise ratio. (See, e.g., FIG. 1B).
Previously, the single-cell metabolic measurement has been challenging. Previously-used methods, such as mass spectrometry, can be difficult to reveal single-cell level heterogeneity. (See, e.g., Reference 24). […] However, due to the complex nature of the Raman spectra, it can be difficult to assign each Raman peak in the fingerprint region to a specific chemical compound. (See, e.g., Reference 25). In addition, when dimension reduction approaches such as PCA can be applied, which can be a common practice for data analysis, the physical meanings of the dimension reduced data can be further lost. On the other hand, since the metabolic probes used have distinctive spectra, it can be straightforward to decompose the spectra in order to obtain the concentration information of each individual probe. Here the exemplary MCR-ALS method, (see, e.g., References 26-28), was used to decompose the composite spectra into the pure spectra of the two metabolic probes, and concentration profiles could thereby be obtained.
To validate the ability to reveal metabolic activity, the exemplary MAP was applied to cultured cells treated with drugs that inhibit known metabolism. Five drugs were used as the reference: cycloheximide and blasticidin, both inhibit protein translation; Triacsin C can be an inhibitor of long fatty acyl CoA synthetase; etoposide and cisplatin can be DNA replication inhibitors. MAP probes and individual drugs were added to the seeded A375 cells and allowed to incubate for 24 hours, after which the cells were fixed and Raman spectra were taken from each individual of the fixed single cells. At least 3 batches of each drug were prepared to ensure model robustness and reproducibility. MCR-ALS on the Raman spectra taken with MAP were applied, from which the concentration profiles of d-AA metabolites and d-PA metabolites in every single cell were calculated. (See, e.g., FIG. 2A).
Since MAP measures the metabolic activity in single cells, its potential in quantitatively characterizing single-cell metabolic heterogeneity was determined. The coefficients of variation (“Cv”) of the single-cell d-PA metabolites and d-AA metabolites distribution were calculated from the metabolic inhibitor-treated cells. (See, e.g., Reference 32). The Cv value can be a normalized measure of the dispersion of the single-cell metabolic activity distribution and thus it can be used as a parameter to quantify the metabolic heterogeneity. […] (See, e.g., FIG. 2C). […] (See, e.g., FIG. 2D).
For MAP samples, cells were first seeded in a 24-well plate at 50% confluency with cell culture media and allowed to adhere overnight. Then the culture media was replaced with MAP culture media (see Table 1 below) and cells were further cultured in MAP media for 24 hours. […]

The next test concerns HeLa cells. Put plainly: Endocytic pathway profiling by Rdots of various sizes and colors, whole-cell Raman. The method, then: Upon exposure to mammalian cells, PS beads have been reported to enter cells through endocytosis, subsequently reaching the endosomal components. (See, e.g., Reference A40). Although some of the endocytic pathways have been well established, their exact biological roles are still under investigation. (See, e.g., References A41, A42). […] (See, e.g., Reference A43). Motivated by the independent size and color tunability of Rdots, cellular endocytosis pathways were profiled by incubating cells with Rdots of different sizes and colors. Rdots of 40 nm (Rdot2207), 70 nm (Rdot2118), and 120 nm (Rdot2092) in diameter were incubated with HeLa cells, and their Raman peaks are designed to be mutually resolvable.
For whole-cell Raman acquisition, the corresponding Raman intensity is proportional to the number of internalized Rdots, since the Raman intensity of Rdots remains stable after exposed to cellular microenvironments. We therefore quantified the peak intensity to profile the differential mechanism of Rdots internalization. To this end, cells were first pre-treated with one of three inhibitors, chlorpromazine (CPZ), nystatin, and cytochalasin D (Cyto D). CPZ is a cationic amphiphilic drug used to block clathrin-mediated endocytosis. (See, e.g., Reference A44). Nystatin can decompose cholesterol and inhibit caveolae-mediated endocytosis. (See, e.g., Reference A45). Cyto D inhibits the polymerization of actin filaments, which is required for receptor-mediated endocytosis in mammalian cells. (See, e.g., Reference A46). Additionally, cells were incubated at 4° C. to inhibit energy-dependent endocytosis. Then endocytosis was examined by the quantification of internalized Rdots at the single-cell level. A distinctive response of Rdots internalization was detected when treated with various inhibitors (FIGS. 16E-G), and the radar plot was presented to highlight the fold change after inhibition (FIG. 16H). […] (See, e.g., Reference A47). […] (See, e.g., References A48, A49).
FIGS. 16A-16M show exemplary illustration of an exemplary endocytic profiling assay by multi-color Rdots. […] The peak position of each Rdots was indicated by the arrow. Excitation: 532 nm (400 mW), acquisition time: 1 s. FIGS. 16B-16D show exemplary SRS images of cellular distribution for three endocytic Rdots, (B) 40 nm (C) 70 nm (D) 120 nm, scale bar: 10 µm. […] Excitation: 532 nm (400 mW), acquisition time: 1 s. FIGS. 16J-L show exemplary histogram showing the Raman intensity distribution of three endocytic Rdots uptake by HeLa, SKBR3, and COS-7 cells, FIG. 16J - 40 nm, FIG. 16K - 70 nm, and FIG. 16L - 120 nm.

In another test the test system is SKBR3 cells. The method, then:
Metabolic probes including ^13C-EdU, 17-ODYA, and ^13C-AA were first supplemented to cell culture media for 60 hours to report various metabolic activities. For endocytic profiling, cells were subsequently incubated with three Rdots for 6 hours. Then, seven functionalized Rdots cocktail was pooled to stain cell surface proteins simultaneously. Prior to the spectral acquisition, AltQ2 probe was added to live cells. Single-cell Raman spectra of SKBR3 cells were acquired with 1 second acquisition time (see FIG. 17C). To decipher the contribution of individual Raman probes, the amide region (1500 cm^-1-1700 cm-^1) and cell-silent region (2000 cm^-1 - 2300 cm-^1) were linearly decomposed by using the reference spectral profiles of each probe (see FIG. 17D) (See, e.g., References A54-A56). The unmixing procedure was applied on single-cell Raman spectra (see FIG. 17E). […] (See, e.g., References A25, A26).
Cell-based profiling techniques are increasingly being used in drug discovery to monitor cell response upon drug treatment. (See, e.g., Reference A57). Optical techniques have unique advantages by allowing non-invasive, fast, and cost-effective readouts of individual living cells. (See, e.g., Reference A58). However, most high-content profiling assays have been primarily focusing on partial aspects of biological phenotypes. (See, e.g., Reference A59). Integration of different phenotypes will facilitate a more systematic understanding of the mechanism of drug candidates. (See, e.g., Reference A60). […] Trastuzumab is a HER2-targeted monoclonal antibody developed for clinical use in breast cancer patients. (See, e.g., Reference A61). Hydrogen peroxide (H2O2) is well known as a major member of reactive oxygen species (ROS). (See, e.g., Reference A62). Cycloheximide (CHX) exerts its action by inhibiting protein synthesis. (See, e.g., Reference A63). Cyto D causes the disruption of actin filaments and inhibition of actin polymerization. (See, e.g., Reference A64). Cisplatin is an inhibitor of DNA synthesis and cell growth. (See, e.g., Reference A65). After labeling with 14 Raman probes, single-cell Raman spectra of SKBR3 cells under treatment of five chemotherapy reagents, as well as untreated cells, were acquired through the automated whole-cell Raman micro-spectroscopy (see FIG. 18B).
SKBR3 cells were seeded onto 18 mm round quartz coverslips (Electron Microscopy Sciences, 103302-258) and then maintained in a culture environment for 48 hours to reach 90% confluence. Then the culture medium was replaced with ^13C-AA DMEM containing 200 µM 17-ODYA and 50 nM ^13C-EdU for 60 hours. For the drug testing samples, cells were subject to the drug treatment simultaneously (see Table 5 for specific drug concentration). Followed by three rounds of gentle washing of DPBS buffer, cells were subsequently incubated with three-colored endocytic Rdots at 1 nM in serum-free DMEM medium. 6 hours later, cell surface markers were stained with seven-colored Rdots at a concentration of 10 nM for 1 hour on ice. After that, cells were washed extensively with DPBS buffer with 5 mM MgCl2 and 1% BSA. Then cells were rinsed with DPBS buffer with 5 mM MgCl2 and 40 µM AltQ2 before mounting onto the microscope for Raman measurement. Spectral unmixing was performed through the Least Square Method (LSM).

[1] abbreviates: drug 60 hours, normalized to control.

Regarding `CCC/C=C/C/C=C/C=C/C=N/NN=O` [triacsin C, Triacsin C], the “metabolic heterogeneity of protein synthesis activity (Cv of single-cell d-AA metabolites)” value in the test with A375 cells (24 hours drug, compared to control group) is on record as “unaltered Cv value”. For the same compound, the “metabolic heterogeneity of lipid synthesis activity (Cv of single-cell d-PA metabolites)” value with A375 cells (24 hours drug) is reported as “did not change the metabolic heterogeneity”. Besides, the “d-PA metabolites (lipid synthesis activity)” value with A375 cells (drug plus MAP probes 24 hours, compared to untreated cells) is given as “significant loss”. Also, in the test on A375 cells (drug plus MAP probes 24 hours), the “d-AA metabolites (protein synthesis activity)” value was “decrease in protein synthesis activity”.

As to `CN(CC[C@H](N)CC(=O)N[C@H]1C=C[C@H](n2ccc(N)nc2=O)O[C@@H]1C(=O)O)C(=N)N` [blasticidin], the “metabolic heterogeneity of lipid synthesis activity (Cv of single-cell d-PA metabolites)” value with A375 cells (24 hours drug) is listed as “did not alter the lipid synthesis activity distribution”. Moreover, the “d-AA metabolites (protein synthesis activity)” value in the test with A375 cells (drug plus MAP probes 24 hours) is “significant decrease”.

With `C[C@@H]1[C@H](O)[C@@H](C)/C=C/C=C/CC/C=C/C=C/C=C/C=C/C(O[C@H]2O[C@H](C)[C@@H](O)[C@H](N)[C@@H]2O)CC2O[C@](O)(CC(O)C(O)CCC(O)CC(O)CC(O)CC(=O)O[C@H]1C)CC(O)C2C(=O)O` (stereo partly drawn) [nystatin], the “internalization of 120 nm Rdots after inhibitor pre-treatment” value with HeLa cells (Rdot2092 (120 nm)) was “inhibited”. In the test on HeLa cells (Rdot2118 (70 nm)), the “internalization of 70 nm Rdots after inhibitor pre-treatment” value is listed as “inhibited”. Also, the “internalization of 40 nm Rdots after inhibitor pre-treatment” value in the test on HeLa cells (Rdot2207 (40 nm)) was “unaltered or even slightly higher”. Also, in the test on HeLa cells (single-cell Raman intensity of internalized Rdots), the “Rdots uptake (40 nm, 70 nm and 120 nm Rdots) after inhibitor pre-treatment” value was “decreased as size increases”.

As for `C=C1[C@@H](C)[C@H]2[C@H](Cc3ccccc3)NC(=O)[C@]23[C@H](OC(C)=O)/C=C/[C@@](C)(O)C(=O)[C@@H](C)C/C=C/[C@H]3[C@@H]1O` [Cyto D, cytochalasin D], the “cellular uptake of Rdots, incubation with inhibitor for 60 hours” value in the test on HeLa cells (60 hours) is listed as “markedly promoted”. Also, the “Rdots internalization, short-term inhibitor incubation” value with HeLa cells (short-term incubation (6 hours per FIG. 16 legend)) is “suppressed”. For the same compound, in the test on SKBR3 cells (drug 60 hours), the “CD44 surface expression (Rdot2079-CD44)” value was “suppresses CD44 surface expression” and the “internalization of AltQ2” value was “increased internalization”. Besides, in the test on SKBR3 cells (setting [1]), the “DNA synthesis (13C-EdU probe)” value is given as “inhibits” and the “protein synthesis (13C-AA probe)” value is on record as “inhibits”. Also, the “cellular internalization of Rdots” value in the test with SKBR3 cells (long-term drug treatment) is “promote cellular internalization of Rdots”.

With `COc1cc([C@@H]2c3cc4c(cc3[C@@H](O[C@@H]3O[C@@H]5CO[C@@H](C)O[C@H]5[C@H](O)[C@H]3O)[C@H]3COC(=O)[C@H]23)OCO4)cc(OC)c1O` [etoposide], the “metabolic heterogeneity of lipid synthesis activity (Cv of single-cell d-PA metabolites)” value with A375 cells (24 hours drug) was “significantly decreased lipid synthesis heterogeneity”.

In the case of `N.N.[Cl][Pt][Cl]` [cisplatin], the “metabolic heterogeneity of lipid synthesis activity (Cv of single-cell d-PA metabolites)” value in the test with A375 cells (24 hours drug) is “significantly decreased lipid synthesis heterogeneity”.

For the compound `OO` [H2O2, Hydrogen peroxide], in the test with SKBR3 cells (drug 60 hours), the “cellular internalization of Rdots of 70 nm” value was “promoted”, the “cellular internalization of Rdots of 120 nm” value is listed as “promoted”, the “fatty acid turnover phenotype (17-ODYA probe)” value was “retarding their turnover rate” and the “internalization of AltQ2” value is given as “increased internalization”.

Turning to `C[C@@H]1C[C@@H]([C@H](O)CC2CC(=O)NC(=O)C2)C(=O)[C@@H](C)C1` [cycloheximide], the “metabolic heterogeneity of lipid synthesis activity (Cv of single-cell d-PA metabolites)” value in the test on A375 cells (24 hours drug) is “did not alter the lipid synthesis activity distribution”. For the same compound, the “d-AA metabolites (protein synthesis activity)” value in the test on A375 cells (drug plus MAP probes 24 hours) was “significant decrease”. Further, in the test with SKBR3 cells (drug 60 hours), the “internalization of AltQ2” value is listed as “increased internalization”. The “DNA synthesis (13C-EdU probe)” value in the test on SKBR3 cells (setting [1]) is “interfere with the process other than protein synthesis such as DNA synthesis”.

For the origin of these results see patent US20230341376A1, “SYSTEM, METHOD, AND COMPUTER-ACCESSIBLE MEDIUM FOR PHENOTYPING OF SINGLE CELLS WITH MULTIPLEXED VIBRATIONAL PROBES” (The Trustees of Columbia University in the City of New York, priority 2020, published 2023).
